Where no end group is shown, it is not given here.
How the values were obtained:
[1] = amino acid hydrophobicity index; cited from earlier work
Text: Rimola et al. reported a review paper on the effect of silica surface features on the adsorption of biomolecules, such as polypeptides. […] This tendency was also obtained in our experiments as described in Fig. 2C. […] All 5 ...

pepsin = biological target: T1, pepsin (Sus scrofa, UniProt P00791); test: Peptide digestive enzyme stability experiment (SGF with pepsin); format: in vitro ADME; details: SGF pH 1.2 with pepsin (0.32 g/100 mL), 60 min, 37 °C, RP-HPLC UV, no addition of pepsin = 100%
T1 construct: purchased WAKO, Japan 161–24482
T1 sequence (P00791 60-385): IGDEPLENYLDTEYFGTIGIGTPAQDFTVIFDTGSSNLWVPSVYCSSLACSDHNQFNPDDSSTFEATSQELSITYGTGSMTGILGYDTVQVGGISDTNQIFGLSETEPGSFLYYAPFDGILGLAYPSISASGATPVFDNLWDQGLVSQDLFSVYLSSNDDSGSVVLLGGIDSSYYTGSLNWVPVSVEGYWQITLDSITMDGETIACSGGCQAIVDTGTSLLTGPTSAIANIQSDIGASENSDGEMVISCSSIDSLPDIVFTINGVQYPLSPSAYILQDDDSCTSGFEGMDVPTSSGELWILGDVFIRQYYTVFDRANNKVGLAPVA
Experimental: Finally, we investigated whether the heat-treated silica gel used in this study protected the peptides that were adsorbed to them from pepsin degradation. We used DFELEDD with a high score value (Fig. 3D). The peptide was adsorbed to the heat-treated silica gel, incubated for 60 min in simulated gastric fluid containing pepsin, and then transferred to the pH 7.4 buffer that mimics the intestinal environment. […] In contrast, the degradation of the peptide was inhibited under the condition with silica gel and 57.1 ± 3.9% of the peptide was released. This occurred because the peptide was adsorbed to the pore surface of the heat-treated silica gel. Schlipf et al. reported EGFP (2.4 nm diameter × 4.2 nm) protection from proteolytic attack by Pepsin A (7.3 nm × 3.6 nm × 5.4 nm) by the mesoporous silica with 7.3 nm pores. […]
SGF (simulated gastric fluid) has been reported previously. […] To quantify the peptide, 250 μL of solution was injected into the HPLC.
Chromatographic analysis was performed with a HPLC system (JASCO, Japan) equipped with pump (model PU 2086 Plus), UV detector (model MD 4017), and a C18 column (d = 20 mm, L = 250 mm; SHISEIDO, Japan). […] The column was maintained at 30 °C, the flow rate was 5 mL/min, and the eluted peaks were detected by UV absorbance of 220 and 280 nm.

Row | Compound | Hydrophobicity of amino acid [1] | Peptide release rate (protection) after pepsin degradation, with heat-treated silica gel (pepsin; 0.5 mM peptide mixed with 25 mg/mL heat-treated silica gel, precipitate released in 300 μL PBS pH 7.4, mean ± SD) [%] | Peptide release rate after pepsin degradation, without silica gel (pepsin; no silica gel, 0.5 mM peptide, then pH 7.4 PBS) [%]
1 | N[C@@H](Cc1ccccc1)C(=O)O [F, Phe] | 2.8 | – | –
2 | CC[C@H](C)[C@H](N)C(=O)O [I] | 4.5 | – | –
3 | CC(C)[C@H](N)C(=O)O [V] | 4.2 | – | –
4 | DFELEDD [DFELEDD] | – | 57.1 ± 3.9 | < 1.0

— publication PMC6054636, “Interaction between porous silica gel microcarriers and peptides for oral administration of functional peptides” (Scientific Reports, 2018)
